From publication PMC7910394, “Design of PSMA ligands with modifications at the inhibitor part: an approach to reduce the salivary gland uptake of radiolabeled PSMA inhibitors?” (EJNMMI Radiopharmacy and Chemistry, 2021)

What was measured:
[1] = Lipophilicity (log D), shake-flask method; assay type: physicochemical; details: n-octanol/PBS pH 7.4, 177Lu-labeled compound, n = 6
Description: The log D values were determined, using the shake-flask method as previously described (Wurzer et al. [2020]). The radiolabeled tracer (0.5–1 MBq, 20 μL) was dissolved in 1 mL of a 1/1 mixture (v/v) of PBS (pH 7.4) and n-octanol in a reaction vial (n = 6). After vigorous mixing of the suspension for 3 min at r.t., the vial was centrifuged at 9000 rpm (ca. 7700×g) for 5 min at room temperature (Heraeus Biofuge 15, Thermo Fisher Scientific, Darmstadt, Germany) and 150 μL aliquots of both layers were measured in a ɣ-counter.

[2] = test system: LNCaP cells; assay: Internalization study of 177Lu-labeled ligands in LNCaP cells, normalized to ([125I]I-BA)KuE; assay type: cell-based, human; details: 37 °C; for internalization (in words): time points 0.5 h, 2 h and 4 h; for %Internalization compared to the reference: 1.0 nM 177Lu-compound, normalized to ([125I]I-BA)KuE
Description: (§1) PSMA-positive LNCaP cells (300265; Cell Lines Service, Eppelheim, Germany) were cultivated in Dulbecco’s modified Eagle medium/Nutrition Mixture F-12 with GlutaMAX (1/1, DMEM-F12, Thermo Fisher Scientific, Darmstadt, Germany) supplemented with 10% fetal bovine serum (Merck KGaA, Darmstadt, Germany) and kept at 37 °C in a humidified 5% CO2 atmosphere. One day (24 ± 2 h) prior to all in vitro experiments, the cultivated LNCaP cells were harvested using a mixture of trypsin/ethylenediamine-tetraacetic acid (0.05%/0.02%) in PBS (Thermo Fisher Scientific, Darmstadt, Germany) and centrifuged at 1300 rpm (ca. 190×g) for 3 min at room temperature (Heraeus Megafuge 16, Thermo Fisher Scientific, Darmstadt, Germany). After centrifugation, the supernatant was disposed and the cell pellet was resuspended in culture medium. Cells were counted with a Neubauer hemocytometer (Paul Marienfeld GmbH & Co. KG, Lauda-Königshofen, Germany) and seeded in 24-well plates.
(§2) Detailed information on affinity and internalization experiments is provided in the supporting information. […] IC50 values of (^natI-BA)KuE were determined on the same day for monitoring assay performance and to identify abnormal deviations in uptake and/or affinity. […] Data were corrected for non-specific binding and normalized to the specific internalization observed for the radioiodinated reference compound (n = 3).
The culture medium was removed and the cells were washed with 500 µL of DMEM-F12 containing 5% BSA. Afterwards, 200 µL of DMEM-F12 (5% BSA) were added to each well and left to equilibrate at 37 °C for 15 min. 25 µL of DMEM-F12 (5% BSA) were added to each well, followed by the addition of 25 µL of the respective ^177Lu-labeled ligand (10.0 nM in DMEM-F12 (5% BSA)). For blocking PSMA-specific binding and uptake, 25 µL of 2-(phosphonomethyl)pentane-1,5-dioic acid (2-PMPA) (100 µM in DMEM (5% BSA)) instead of DMEM-F12 (5% BSA) were added prior to radiotracer addition. […] Each experiment (control and blockade) was performed in triplicate. […] Incubation was terminated by placing the plate on ice (4 °C, 1 min) and removal of the incubation medium. The cells were washed with 250 µL of ice-cold PBS and the wash medium was combined with the respective supernatant. This fraction represents the amount of free radioligand. 250 µL of ice-cold 2-PMPA (10 µM in PBS) were added and the cells were incubated for 10 min at 4 °C. Afterwards, the cells were rinsed again with 250 µL of ice-cold PBS and the wash medium was combined with the respective supernatant. This fraction represents the amount of cell surface-bound ligand. In the last step, the cells were lysed by addition of 250 µL of 1 M aqueous NaOH. After 20 min, the lysate of each well was transferred to the respective vial as well as 250 µL of 1 M NaOH used for rinsing the well. This fraction represents the amount of internalized radioligand. Quantification of the amount of free, cell surface-bound and internalized activity was performed in a γ-counter.

[3] = target: T1, PSMA (Homo sapiens, UniProt Q04609); assay: Competitive binding assay (IC50) on LNCaP cells with ([125I]I-BA)KuE as radioligand; details: ([125I]I-BA)KuE 0.2 nM, HBSS (1% BSA), 4 °C, 1 h
T1 construct: host or cells: LNCaP human prostate cancer cells
Description: as §1, §2
The culture medium was removed and the cells were washed with 500 µL of Hank’s balanced salt solution (HBSS) (Merck KGaA, Darmstadt, Germany), containing 1% bovine serum albumin (BSA) (Merck KGaA, Darmstadt, Germany). Afterwards, 200 µL of HBSS (1% BSA) were added to each well and equilibrated on ice (4 °C) for 15 min. […] Experiments were carried out in triplicates for each concentration. The final concentrations of unlabeled ligand ranged from 10^-11 - 10^-5 M and the final radioligand concentration was 0.2 nM in all binding assays. The cells were incubated for one hour at 4 °C. Incubation was terminated by removal of the incubation medium. The cells were washed with 250 µL of HBSS (1% BSA) and the wash medium was combined with the respective supernatant. This fraction represents the amount of free radioligand. The cells were lysed by addition of 250 µL of 1 M aqueous NaOH. The lysate of each well was transferred to the respective vial as well as 250 µL of 1 M NaOH used for rinsing the well. Quantification of the amount of free and bound activity was performed in a γ-counter. The corresponding IC50 values were calculated using the GraphPad PRISM7 software.

[4] = test system: LNCaP tumor xenograft-bearing CB17-SCID mice; assay type: in vivo, mouse; details: 24 h p.i.
Description: All animal experiments were conducted in accordance with general animal welfare regulations in Germany (German animal protection act, as amended on 18.05.2018, Art. 141 G v. 29.3.2017 I 626, approval no. 55.2–1-54-2532-71-13) and the institutional guidelines for the care and use of animals. To establish tumor xenografts, LNCaP cells (approx. 10^7 cells) were suspended in 200 μL of a 1/1 mixture (v/v) of DMEM F-12 and Matrigel (BD Biosciences, Heidelberg, Germany) and inoculated subcutaneously onto the right shoulder of 6–8 weeks old CB17-SCID mice (Charles River Laboratories, Sulzfeld, Germany). Mice were used for experiments when tumor size reached 5–10 mm in diameter (3–6 weeks after inoculation).
(§3) Approximately 2–10 MBq (0.20 nmol) of the ^177Lu-labeled PSMA inhibitors were injected into the tail vein of LNCaP tumor xenograft-bearing male CB17-SCID mice (n = 3 to 5). They were sacrificed by CO2 asphyxiation and cervical dislocation either 1 h or 24 h post injection (p.i.) (n = 3 for [^177Lu]Lu-5, -6 & -7 (proinhibitor compounds I-III), n = 4 for [^177Lu]Lu-10 (alkyne), n = 5 for [^177Lu]Lu-3 (carbamate I) and n = 5 for [^177Lu]Lu-11 (tetrazole)). Selected organs were removed, weighed and organ activities measured in a γ-counter.
as §3, with “2 - 10” for “2–10”, “(alkyne) and” for “(alkyne),”

[5] = in vivo; cited from earlier work

T1 sequence (Q04609 whole entry): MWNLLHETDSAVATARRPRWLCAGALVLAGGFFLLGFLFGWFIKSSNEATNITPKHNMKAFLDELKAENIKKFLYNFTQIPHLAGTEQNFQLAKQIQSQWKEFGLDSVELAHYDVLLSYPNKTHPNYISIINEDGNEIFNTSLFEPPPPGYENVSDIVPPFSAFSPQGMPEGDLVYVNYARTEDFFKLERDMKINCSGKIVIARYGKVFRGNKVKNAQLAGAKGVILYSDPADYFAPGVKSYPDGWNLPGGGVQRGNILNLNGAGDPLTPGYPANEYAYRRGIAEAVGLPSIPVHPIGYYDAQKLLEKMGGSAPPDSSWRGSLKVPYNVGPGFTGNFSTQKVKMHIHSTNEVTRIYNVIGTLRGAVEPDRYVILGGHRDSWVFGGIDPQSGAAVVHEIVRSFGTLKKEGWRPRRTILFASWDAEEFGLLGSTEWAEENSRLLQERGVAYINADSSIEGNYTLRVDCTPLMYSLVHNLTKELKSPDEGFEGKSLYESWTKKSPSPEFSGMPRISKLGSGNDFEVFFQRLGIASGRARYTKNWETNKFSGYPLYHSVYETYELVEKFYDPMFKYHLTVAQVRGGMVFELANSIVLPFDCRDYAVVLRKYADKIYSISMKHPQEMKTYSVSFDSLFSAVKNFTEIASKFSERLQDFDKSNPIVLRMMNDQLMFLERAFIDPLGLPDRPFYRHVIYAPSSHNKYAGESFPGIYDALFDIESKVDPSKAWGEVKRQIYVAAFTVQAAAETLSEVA

| Molecule | log D [1] | internalization (in words) ([2]; 1 h) | %Internalization compared to the reference ([2]; 0.5 h) | %Internalization compared to the reference ([2]; 1 h) | %Internalization compared to the reference ([2]; 2 h) | %Internalization compared to the reference ([2]; 4 h) | IC50 [3] [µM] | Biodistribution Heart [4] [% ID/g] | Biodistribution Intestine [4] [% ID/g] | Biodistribution Kidneys [4] [% ID/g] | Biodistribution Liver [4] [% ID/g] | Biodistribution Lung [4] [% ID/g] | Biodistribution Pancreas [4] [% ID/g] | Biodistribution Parotid gland [4] [% ID/g] | Biodistribution Spleen [4] [% ID/g] | Biodistribution Stomach [4] [% ID/g] | Biodistribution Submandibular gland [4] [% ID/g] | Biodistribution Tumor [4] [% ID/g] | further results |
| --- | --- | --- | --- | --- | --- | --- | --- | --- | --- | --- | --- | --- | --- | --- | --- | --- | --- | --- | --- |
| CSCC[C@H](NC(=O)CC[C@H](NC(=O)N[C@@H](CCC(=O)N[C@H](CCCNC(=O)CCC(=O)NCCCC[C@@H](NC(=O)[C@@H](CNC(=O)c1ccc([Si](F)(C(C)(C)C)C(C)(C)C)cc1)NC(=O)CN1CCN(CC(=O)[O-])CCN(CC(=O)[O-])CCN(CC(=O)[O-])CC1)C(=O)O)C(=O)O)C(=O)O)C(=O)O)C(=O)O.[Lu+3] [^natLu/[^177Lu]Lu-5] | −2.89 ± 0.18 | no internalization could be detected | 0.00 ± 0.00% | 0.00 ± 0.00% | 0.17 ± 0.32% | 0.01 ± 0.05% | 26 ± 16 | 0.01 ± 0.00 | 0.55 ± 0.04 | 0.48 ± 0.02 | 0.05 ± 0.00 | 0.33 ± 0.30 | 0.01 ± 0.00 | 0.02 ± 0.00 | 0.05 ± 0.01 | 0.14 ± 0.07 | 0.02 ± 0.01 | 0.09 ± 0.02 |  |
| botulinum toxin |  |  |  |  |  |  |  |  |  |  |  |  |  |  |  |  |  |  | decrease of the SUVmean in the right parotid gland compared to the left (control) [5]: up to 64% |
| CCCCCCC(NC(=O)C(CCC(=O)O)NC(=O)NC(CCC(=O)NC(CCCNC(=O)CCC(=O)NCCCCC(NC(=O)C(CNC(=O)c1ccc([Si](F)(C(C)(C)C)C(C)(C)C)cc1)NC(=O)CN1CCN(CC(=O)[O-])CCN(CC(=O)[O-])CCN(CC(=O)[O-])CC1)C(=O)O)C(=O)O)C(=O)O)C(=O)O.[Lu+3] (centres unmarked) [^natLu/[^177Lu]Lu-7] | −2.37 ± 0.22 | no internalization could be detected | 0.5 h: 0.00 ± 0.00 1 h: 0.00 ± 0.00 2 h: 0.00 ± 0.00 4 h: 0.00 ± 0.00% | 0.5 h: 0.00 ± 0.00 1 h: 0.00 ± 0.00 2 h: 0.00 ± 0.00 4 h: 0.00 ± 0.00% | 0.5 h: 0.00 ± 0.00 1 h: 0.00 ± 0.00 2 h: 0.00 ± 0.00 4 h: 0.00 ± 0.00% | 0.5 h: 0.00 ± 0.00 1 h: 0.00 ± 0.00 2 h: 0.00 ± 0.00 4 h: 0.00 ± 0.00% | 6.3 ± 3.6 | 0.03 ± 0.01 | 0.10 ± 0.05 | 2.04 ± 0.75 | 0.17 ± 0.05 | 0.04 ± 0.01 | 0.02 ± 0.00 | 0.06 ± 0.01 | 0.08 ± 0.02 | 0.04 ± 0.01 | 0.05 ± 0.02 | 0.14 ± 0.05 | Biodistribution Adrenals [4]: 0.03 ± 0.01 % ID/g; Biodistribution Blood [4]: 0.01 ± 0.00 % ID/g; Biodistribution Bone [4]: 0.04 ± 0.01 % ID/g; Biodistribution Muscle [4]: 0.01 ± 0.00 % ID/g |
